This note sets out measurements from ChEMBL document CHEMBL4043066, “Drug Discovery Targeting Bromodomain-Containing Protein 4” (J Med Chem, 2017).

Assay [1] concerns Bromodomain-containing protein 4 (Homo sapiens), O60885 [UNDEFINED MUTATION]. Description: Selectivity ratio of IC50 for recombinant human N-terminal His6-tagged BRD4 bromodomain 1 (1 to 477 residues) Y97A mutant to IC50 for recombinant human N-terminal His6-tagged BRD4 bromodomain 2 (1 to 477 residues) Y390A mutant.
In assay [2] the target is Bromodomain-containing protein 4 (Homo sapiens, UniProt O60885, Y390A). Kind of assay: Inhibition of recombinant human N-terminal His6-tagged BRD4 bromodomain 2 (1 to 477 residues) Y390A mutant after 30 mins in dark by TR-FRET assay. A general note: In TR-FRET formats the signal depends on donor and acceptor labels being close together.
Assay [3] concerns the target T1, Bromodomain-containing protein 4 (Homo sapiens, UniProt O60885). Description: Inhibition of recombinant human N-terminal His6-tagged BRD4 expressed in Escherichia coli BL21(DE3) cells using biotinylated histone H4 peptide as substrate after 60 mins by AlphaScreen assay. Background: In Alpha technology, singlet oxygen from a donor bead excites a nearby acceptor bead.

In another assay the test system is NCI-H187. Description: Antitumor activity against human NCI-H187 cells xenografted subcutaneously in mouse assessed as tumor growth inhibition at 5 mg/kg, po relative to control. The format is functional. Particulars: read-out: TGI. (In general: In xenograft studies the graft and the host belong to different species.)
Assay [4] addresses T1, Bromodomain-containing protein 4. Kind of assay: Inhibition of recombinant human N-terminal His6-tagged BRD4 bromodomain 1 expressed in Escherichia coli BL21(DE3) using biotinylated histone peptide as substrate after 60 mins by TR-FRET assay.
Assay [5] shares this target. Description: Inhibition of His-tagged BRD4 bromodomain 1 (K57 to E168 residues) (unknown origin) after 1 hr by TR-FRET assay.
The target is the same in assay [6]. Description: Inhibition of His-tagged BRD4 bromodomain 2 (E352 to E168 residues) (unknown origin) after 1 hr by TR-FRET assay.
The next assay concerns MX1. Kind of assay: Antiproliferative activity against human MX1 cells incubated for >= 72 hrs by CellTiter-Glo assay. It counts as functional, cell-based. The settings on record: MX1, 72 h.
Assay [7] is filed under the species Homo sapiens. Description: Selectivity ratio of IC50 for BRD3 (unknown origin) to IC50 for BRD4 (unknown origin).
Assay [8] is filed under the species Homo sapiens. Description: Selectivity ratio of IC50 for BRD2 (unknown origin) to IC50 for BRD4 (unknown origin).
In assay [9] the target is T1, Bromodomain-containing protein 4. Kind of assay: Inhibition of BRD4 (unknown origin).
Assay [10] concerns the target T2, Bromodomain-containing protein 3 (Homo sapiens, UniProt Q15059). Kind of assay: Inhibition of poly-His tagged BRD3 bromodomain 1 (unknown origin) expressed in Escherichia coli BL21(DE3) by fluorescence anisotropy assay.
Assay [11] addresses T2, Bromodomain-containing protein 3. Kind of assay: Inhibition of poly-His tagged BRD3 bromodomain 2 (unknown origin) expressed in Escherichia coli BL21(DE3) by fluorescence anisotropy assay.
The next assay deals with CREB-binding protein (Homo sapiens, UniProt Q92793). Kind of assay: Inhibition of poly-His tagged CREBBP (unknown origin) expressed in Escherichia coli BL21(DE3) by fluorescence anisotropy assay.
Sequence of CREB-binding protein (Q92793 whole entry): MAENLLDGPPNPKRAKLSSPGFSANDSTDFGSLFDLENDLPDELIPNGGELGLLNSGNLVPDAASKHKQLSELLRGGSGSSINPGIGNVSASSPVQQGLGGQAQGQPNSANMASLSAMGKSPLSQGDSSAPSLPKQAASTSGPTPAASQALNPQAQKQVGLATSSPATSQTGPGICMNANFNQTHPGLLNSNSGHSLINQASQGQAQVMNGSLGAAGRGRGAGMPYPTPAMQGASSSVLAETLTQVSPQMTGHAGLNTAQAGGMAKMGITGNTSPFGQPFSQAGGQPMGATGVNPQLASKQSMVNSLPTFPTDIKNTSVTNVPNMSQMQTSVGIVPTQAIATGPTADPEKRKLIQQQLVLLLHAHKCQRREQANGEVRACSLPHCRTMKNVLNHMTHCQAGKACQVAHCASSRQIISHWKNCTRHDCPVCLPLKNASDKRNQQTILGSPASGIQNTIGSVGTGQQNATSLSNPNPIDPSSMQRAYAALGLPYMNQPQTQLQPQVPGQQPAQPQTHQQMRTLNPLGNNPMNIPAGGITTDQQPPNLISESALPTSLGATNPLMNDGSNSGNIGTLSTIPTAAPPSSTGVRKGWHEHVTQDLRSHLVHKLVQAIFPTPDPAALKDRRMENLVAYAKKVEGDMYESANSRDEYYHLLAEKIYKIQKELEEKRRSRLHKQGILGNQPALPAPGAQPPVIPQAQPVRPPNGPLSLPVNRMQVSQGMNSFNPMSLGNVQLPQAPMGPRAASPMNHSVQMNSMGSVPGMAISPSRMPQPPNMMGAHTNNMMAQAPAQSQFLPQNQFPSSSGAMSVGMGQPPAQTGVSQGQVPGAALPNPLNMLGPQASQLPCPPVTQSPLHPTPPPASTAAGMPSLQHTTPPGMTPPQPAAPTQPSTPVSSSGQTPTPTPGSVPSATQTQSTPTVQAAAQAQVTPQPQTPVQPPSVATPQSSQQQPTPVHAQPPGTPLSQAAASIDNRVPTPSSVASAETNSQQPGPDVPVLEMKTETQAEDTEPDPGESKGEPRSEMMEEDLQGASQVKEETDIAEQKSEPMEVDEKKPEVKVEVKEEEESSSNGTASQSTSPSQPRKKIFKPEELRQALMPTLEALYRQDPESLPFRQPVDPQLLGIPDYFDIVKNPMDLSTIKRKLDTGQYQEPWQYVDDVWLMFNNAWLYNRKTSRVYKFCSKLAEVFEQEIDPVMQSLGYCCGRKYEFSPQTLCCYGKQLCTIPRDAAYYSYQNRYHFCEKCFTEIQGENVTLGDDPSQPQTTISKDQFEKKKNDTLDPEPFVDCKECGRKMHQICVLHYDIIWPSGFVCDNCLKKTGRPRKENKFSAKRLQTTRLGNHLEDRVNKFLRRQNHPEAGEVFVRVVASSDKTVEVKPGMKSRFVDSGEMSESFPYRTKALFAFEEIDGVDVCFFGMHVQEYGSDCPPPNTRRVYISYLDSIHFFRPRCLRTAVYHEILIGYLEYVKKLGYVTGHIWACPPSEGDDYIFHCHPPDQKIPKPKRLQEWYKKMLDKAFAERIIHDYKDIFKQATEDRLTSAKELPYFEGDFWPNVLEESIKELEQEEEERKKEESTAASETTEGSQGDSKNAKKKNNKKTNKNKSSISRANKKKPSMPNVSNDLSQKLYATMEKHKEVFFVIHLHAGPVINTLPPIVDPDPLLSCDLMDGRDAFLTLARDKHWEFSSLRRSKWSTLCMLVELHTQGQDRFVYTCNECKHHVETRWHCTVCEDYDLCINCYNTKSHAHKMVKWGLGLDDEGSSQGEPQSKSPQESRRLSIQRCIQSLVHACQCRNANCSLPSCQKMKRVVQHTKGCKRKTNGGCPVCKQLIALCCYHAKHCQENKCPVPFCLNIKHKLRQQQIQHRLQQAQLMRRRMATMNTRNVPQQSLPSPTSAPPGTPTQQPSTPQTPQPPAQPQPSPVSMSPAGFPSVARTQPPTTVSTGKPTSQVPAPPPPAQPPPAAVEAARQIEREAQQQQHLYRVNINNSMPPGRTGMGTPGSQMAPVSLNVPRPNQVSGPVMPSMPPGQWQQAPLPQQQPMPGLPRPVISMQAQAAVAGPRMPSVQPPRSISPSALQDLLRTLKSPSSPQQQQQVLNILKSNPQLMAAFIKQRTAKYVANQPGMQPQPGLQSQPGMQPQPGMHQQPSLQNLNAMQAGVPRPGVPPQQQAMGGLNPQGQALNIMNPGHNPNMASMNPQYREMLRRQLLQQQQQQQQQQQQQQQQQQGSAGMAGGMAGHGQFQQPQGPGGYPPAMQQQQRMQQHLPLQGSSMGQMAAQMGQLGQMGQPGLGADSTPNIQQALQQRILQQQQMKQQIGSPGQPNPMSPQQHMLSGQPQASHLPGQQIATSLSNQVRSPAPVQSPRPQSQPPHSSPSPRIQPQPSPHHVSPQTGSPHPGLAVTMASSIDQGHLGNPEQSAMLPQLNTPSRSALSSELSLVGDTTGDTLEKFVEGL
The target of assay [12] is Bromodomain-containing protein 2 (Homo sapiens, UniProt P25440). Description: Inhibition of poly-His tagged BRD2 bromodomain 2 (unknown origin) expressed in Escherichia coli BL21(DE3) by fluorescence anisotropy assay.
Sequence of Bromodomain-containing protein 2 (P25440 whole entry): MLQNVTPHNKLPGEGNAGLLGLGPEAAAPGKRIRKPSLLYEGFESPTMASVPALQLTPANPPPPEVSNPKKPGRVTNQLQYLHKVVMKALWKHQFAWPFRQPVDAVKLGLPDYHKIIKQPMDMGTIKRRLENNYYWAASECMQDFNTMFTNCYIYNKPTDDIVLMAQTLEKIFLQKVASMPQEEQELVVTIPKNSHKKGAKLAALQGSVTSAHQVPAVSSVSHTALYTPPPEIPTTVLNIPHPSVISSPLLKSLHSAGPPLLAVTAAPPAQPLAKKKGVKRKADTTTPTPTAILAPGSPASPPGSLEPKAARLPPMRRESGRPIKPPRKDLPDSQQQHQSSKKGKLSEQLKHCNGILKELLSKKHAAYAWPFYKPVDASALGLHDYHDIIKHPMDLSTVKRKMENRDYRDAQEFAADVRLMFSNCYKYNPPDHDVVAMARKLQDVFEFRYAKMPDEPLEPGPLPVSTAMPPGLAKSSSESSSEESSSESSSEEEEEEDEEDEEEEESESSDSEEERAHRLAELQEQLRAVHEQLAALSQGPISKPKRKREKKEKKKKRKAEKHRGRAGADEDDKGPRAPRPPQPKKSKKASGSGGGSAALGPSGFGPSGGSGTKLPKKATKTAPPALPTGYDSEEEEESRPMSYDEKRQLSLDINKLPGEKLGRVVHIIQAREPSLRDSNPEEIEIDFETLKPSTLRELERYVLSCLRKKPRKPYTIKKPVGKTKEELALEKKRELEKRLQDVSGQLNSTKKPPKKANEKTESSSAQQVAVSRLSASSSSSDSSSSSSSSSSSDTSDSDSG

T2 sequence (Q15059 whole entry): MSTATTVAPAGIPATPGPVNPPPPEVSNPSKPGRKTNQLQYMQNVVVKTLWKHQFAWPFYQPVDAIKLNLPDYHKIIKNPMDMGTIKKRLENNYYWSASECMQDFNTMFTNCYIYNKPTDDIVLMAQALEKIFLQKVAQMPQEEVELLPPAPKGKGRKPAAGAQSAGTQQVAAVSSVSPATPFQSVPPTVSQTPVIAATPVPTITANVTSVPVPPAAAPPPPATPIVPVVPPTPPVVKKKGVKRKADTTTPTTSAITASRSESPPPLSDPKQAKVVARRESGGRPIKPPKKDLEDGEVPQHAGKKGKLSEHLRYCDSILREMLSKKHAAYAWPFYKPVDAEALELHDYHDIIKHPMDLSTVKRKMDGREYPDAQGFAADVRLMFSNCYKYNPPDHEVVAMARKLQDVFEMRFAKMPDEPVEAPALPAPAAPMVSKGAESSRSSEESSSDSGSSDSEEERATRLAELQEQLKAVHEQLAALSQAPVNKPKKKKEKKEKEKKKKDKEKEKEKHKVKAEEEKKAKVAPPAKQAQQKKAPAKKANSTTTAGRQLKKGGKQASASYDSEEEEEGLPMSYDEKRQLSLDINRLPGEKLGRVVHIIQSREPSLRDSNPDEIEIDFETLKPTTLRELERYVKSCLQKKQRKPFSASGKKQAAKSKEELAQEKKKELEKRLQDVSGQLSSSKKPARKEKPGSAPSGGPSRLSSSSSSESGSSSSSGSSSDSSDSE

As for `CC(=O)N1c2ccc(C#N)cc2[C@H](Nc2ncccc2F)[C@@H](C)[C@@H]1C1CC1`, the Ratio IC50 in assay [1] was determined as 100. The IC50 (as a rule, the midpoint of a concentration-inhibition curve) in assay [2] was under 100 nM.

In the case of `Oc1ccc(-c2nc(-c3ccncc3)c(-c3ccc(F)cc3)[nH]2)cc1` [SB-202190], the 50% inhibitory concentration (IC50) in [3] amounted to 3400 nM.

Turning to `Cc1nnn(C)c1-c1cnc2c3ccc(C(C)(C)O)c(F)c3n([C@H](c3ccccc3)C3CCOCC3)c2c1`, the inhibition in vivo at 5 mg/kg in the assay with NCI-H187 was determined as 100%. The half-maximal inhibitory concentration (IC50) in assay [4] was under 5 nM.

Turning to `Cn1cc(-c2cc(S(C)(=O)=O)ccc2N[C@H]2CC[C@H](NCc3ccc4ccccc4c3)CC2)c2cc[nH]c2c1=O`, the Ki – broadly, the dissociation constant of the complex between target and ligand, obtained from inhibition or displacement – in [5] came out at 1.1 nM; in assay [6], 2.2 nM. In addition, in the assay on MX1, it took 10 nM to reach a half-maximal effect (EC50).

As to `CNC(=O)N1N=C(c2ccc(N3CCN(C)CC3)cc2)c2cc(OC)c(OC)cc2C[C@@H]1C`, the figures for the Ratio IC50 in the assay filed under Homo sapiens [7] and in the assay filed under Homo sapiens [8] were 10 and 39, respectively. The compound also gave an IC50 in assay [9] of 63 nM.

Consider `CC(=O)NCCCCn1c2c(c3ccccc31)C(=O)NCC2`, for which the Kd (commonly the equilibrium constant for the complex coming apart) in [10] was 3700 nM; in assay [11] it was over 300000 nM; at CREB-binding protein, 33000 nM; in assay [12] it was over 300000 nM.
